Measurements taken from publication PMC8458285, “The Acinetobacter baumannii disinfectant resistance protein, AmvA, is a spermidine and spermine efflux pump” (Communications Biology, 2021).

What was measured:
[1] = target: T1, AmvR (Acinetobacter baumannii, UniProt A0A0D5YGI2); test: nanoDSF isothermal analysis (Kd at […] °C); DSF shift +[…] °C; type: binding
T1 construct: gene ABUW_1678; AmvR (amvR amplified from A. baumannii ATCC17978 genomic DNA) carrying a C-terminal hexahistidine tag; dimer in solution

[2] = target: AmvR (Acinetobacter baumannii ATCC17978); test: SEC; analytical SEC on Superdex 200 10/300 GL; elution volume compared with MW standards (HMW and LMW calibration sets)
[3] = target: T1, AmvR; test: nanoDSF isothermal analysis (Kd at […] °C); weak, DSF shift only +[…] °C; type: binding

Compound | Kd [1] | other results
NCCCCNCCCN [spermidine] | 9.5 µM | –
AmvR (natural protein) | – | stoichiometry N [2]: 2
NCCCCN [putrescine] | – | Kd [3]: 260 µM
NCCCNCCCCNCCCN [spermine] | 5.4 µM | –
